# Measured values from patent publication US5604213A, “17-substituted steroids useful in cancer treatment” (priority 1992, dated 1997).
# T1: aromatase (Homo sapiens, UniProt P11511)
# T1 construct: using human placental microsomes; from tissue; host or cells: human placenta, microsomes
# T1 sequence (P11511 1-503): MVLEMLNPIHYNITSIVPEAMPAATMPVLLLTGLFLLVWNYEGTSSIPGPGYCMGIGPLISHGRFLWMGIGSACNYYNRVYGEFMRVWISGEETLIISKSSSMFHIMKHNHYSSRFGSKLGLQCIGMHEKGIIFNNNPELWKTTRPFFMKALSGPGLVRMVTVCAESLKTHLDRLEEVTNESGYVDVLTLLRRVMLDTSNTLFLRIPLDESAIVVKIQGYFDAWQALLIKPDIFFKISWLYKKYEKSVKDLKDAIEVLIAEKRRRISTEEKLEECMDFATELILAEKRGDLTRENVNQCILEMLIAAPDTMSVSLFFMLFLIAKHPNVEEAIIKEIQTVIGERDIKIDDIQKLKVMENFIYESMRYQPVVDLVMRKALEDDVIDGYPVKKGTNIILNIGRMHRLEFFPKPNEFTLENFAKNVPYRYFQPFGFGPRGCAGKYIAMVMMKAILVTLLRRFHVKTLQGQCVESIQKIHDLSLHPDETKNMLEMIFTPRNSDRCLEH
# T2: 17α-hydroxylase (Homo sapiens, UniProt P05093)
# T2 construct: Human testes were obtained from previously untreated patients undergoing orchidectomy for prostatic cancer; from tissue; host or cells: human testes, microsomes
# T2 sequence (P05093 1-508): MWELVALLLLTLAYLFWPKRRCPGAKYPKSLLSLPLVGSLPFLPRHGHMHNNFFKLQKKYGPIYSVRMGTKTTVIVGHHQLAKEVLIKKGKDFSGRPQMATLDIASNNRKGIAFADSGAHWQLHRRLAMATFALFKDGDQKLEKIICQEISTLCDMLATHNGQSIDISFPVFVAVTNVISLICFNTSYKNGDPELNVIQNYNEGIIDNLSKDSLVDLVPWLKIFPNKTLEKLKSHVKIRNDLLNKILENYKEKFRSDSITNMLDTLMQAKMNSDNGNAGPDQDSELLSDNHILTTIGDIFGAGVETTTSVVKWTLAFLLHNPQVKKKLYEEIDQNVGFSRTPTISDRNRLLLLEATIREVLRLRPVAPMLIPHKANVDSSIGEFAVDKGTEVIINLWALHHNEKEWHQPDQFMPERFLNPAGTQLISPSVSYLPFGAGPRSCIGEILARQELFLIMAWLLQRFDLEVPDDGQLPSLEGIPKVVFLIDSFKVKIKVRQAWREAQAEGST
# T3: C17-C20 lyase (Homo sapiens, UniProt P05093)
# T3 construct: Human testes were obtained from previously untreated patients undergoing orchidectomy for prostatic cancer; from tissue; host or cells: human testes, microsomes
# T3 sequence (P05093 1-508): T2 sequence (P05093 1-508)
# B1: aromatase (Homo sapiens) (protein)
# chain: T1 sequence (P11511 1-503)
# Assays:
# [1] = target: T1, aromatase; type: biochemical; details: human placental microsomes
# Experimental: Aromatase activity was determined by the method of A. B. Foster et al., J. Med. Chem. 26, 50-54 (1983), using human placental microsomes.
# [2] = test system: luteinising hormone; assay: In vivo endocrine test in mice: plasma luteinising hormone (RIA); details: 2 weeks
# Experimental: (§1) Male HWT mice, 12 weeks old, were treated daily for 2 weeks, with 5 animals per treatment group. The test compounds were the compound of Examples 1 and 4 (as representative of compounds of the invention having the pregenolone-like and progesterone-like skeletons respectively). Ketoconazole was also tested at three different doses. The test compounds were made up in 5% benzyl alcohol, 95% safflower oil, and were given i.p. In addition to an untreated control group of animals, there was also a solvent control group which received the same volume of liquid as the test group (5 ml/kg) but no test compound. All animals were sacrificed 24 hours after the last injection. Blood was collected by cardiac puncture into heparinized tubes, and the plasma used for RIA (radio immunoassay) of testosterone and luteinising hormone. The following organs were removed and weighed: adrenals, prostate, seminal vesicles, testes, kidneys. There was no significant body weight loss in any group of mice during the experiments.
# [3] = test system: Male HWT mice; assay: In vivo organ weight test in mice; details: for Mean weight ± standard error, Adrenals / Mean weight ± standard error, Kidneys / Mean weight ± standard error, Seminal Vesicles / Mean weight ± standard error, Prostate / Mean weight ± standard error, Testes: 2 weeks
# Experimental: as §1
# [4] = parameters: species or system mice; details: mouse, in vivo; for post mortem examination: appearance of organs / post mortem examination: deposits: ip
# Experimental: as §1
# In Ketoconazole-treated animals, adhesions were found in 2/5,2/5,4/5 of the low/middle/top dose groups. […] The livers were brown in the middle/top dose groups.
# [5] = target: T2, 17α-hydroxylase; assay: Determination of 17α-hydroxylase (human testicular microsomes, 3H-progesterone); type: biochemical; details: for concentration required to achieve 50% inhibition of hydroxylase, versus the 3-pyridyl (in words): compared with 3-pyridyl
# Experimental: Human testes were obtained from previously untreated patients undergoing orchidectomy for prostatic cancer. The testes were decapsulated and stored in liquid nitrogen until use. A microsomal preparation was prepared essentially as described by S. E. Barrie et al., J. Steroid Biochem. 6, 1191-5, (1989). The material was then thawed, finely chopped, and homogenised in 0.25M sucrose (5 ml/g wet weight) using a Potter homogeniser. The homogenate was centrifuged at 12000 g for 30 min, and then the microsomes were pelleted by spinning the supernatant at 100,000 g for 1 hr. The pellet was washed by being resuspended in 0.25M sucrose and repelleted. The microsomal pellet was then resuspended in 50 mM sodium phosphate pH 7.4/glycerol (3/1 v/v) and stored in aliquots in liquid nitrogen.
# (§2) The basic assay mixture was EDTA (0.2 mM), dithiothreitol (DTT; 0.1 mM), NADPH (0.25 mM), glucose 6-phosphate dehydrogenase (G6PDH; 6.25 μg/ml), MgCl2 (1 mM), glucose 6-phosphate (G6P; 10 mM) and the substrate, 3H-progesterone (3 μM) in sodium phosphate (50 mm), pH 7.4. The compounds under test were dissolved in 50% DMSO and the final concentrations of ethanol and DMSO were 1% each. The assay reaction was carded out for 1 hour and was terminated by the addition of 2 vols. of methanol-acetonitrile (2:1) containing approx. 100 μM unlabelled progesterone, 17α-hydroxyprogesterone, androstenedione, testosterone, and 16α-hydroxyprogesterone.
# The separation of the steroids by HPLC was carried out using an "Uptight" guard column packed with 40-63 μm Nucleosil C18 and a 10 cm main column packed with 5 μm Nucleosil C18 and 60% methanol as eluant. The radioactivity in the peaks of interest was monitored on-line by mixing the HPLC effluent 1:1 with Ecoscint A (National Diagnostics) scintillation fluid, containing 25% acetonitrile, and passing the mixture through a Berthold LB506C radiochemical monitor. The hydroxylase activity was measured as the production of 17α-hydroxyprogesterone, androstenedione and testosterone.
# The enzyme activity was measured in the presence of at least 4 concentrations of each compound. The data were for the 4-pyridyl and 2-picolyl compounds of Table 1 fitted by linear regression to the Dixon equation (M. Dixon, E.C. Webb, Enzymes, 2nd ed., Academic Press, New York, 1964). Data for all the other compounds were fitted by non-linear regression to the median effect equation of Chou, J. Theoret.
# [6] = target: T3, C17-C20 lyase; assay: Determination of C17-C20 lyase (human testicular microsomes, 3H-17α-hydroxyprogesterone); type: biochemical; details: for concentration required to achieve 50% inhibition of lyase, versus the 3-pyridyl (in words): compared with 3-pyridyl
# Experimental: The testes were decapsulated and stored in liquid nitrogen until use. […] The material was then thawed, finely chopped, and homogenised in 0.25M sucrose (5 ml/g wet weight) using a Potter homogeniser. The homogenate was centrifuged at 12000 g for 30 min, and then the microsomes were pelleted by spinning the supernatant at 100,000 g for 1 hr. The pellet was washed by being resuspended in 0.25M sucrose and repelleted. The microsomal pellet was then resuspended in 50 mM sodium phosphate pH 7.4/glycerol (3/1 v/v) and stored in aliquots in liquid nitrogen.
# as §2
# The HPLC separation used for the lyase involved a mini-re-column "Uptight Guard Column" packed with PELL-ODS (pellicular octadecyl silica) and a 10 cm. main column "Apex C18" column packed with 5μ APEX-CAT silica.
# The eluant was 38:12:50 methanol:acetonitrile:water flowing at 1 ml/min. The effluent was mixed 1:1 with Ecoscint A containing 5% methanol and 5% acetonitrile and the radioactivity was measured directly by a Berthold LB506C radiochemical detector. The lyase activity was measured as the production of androstenedione and testosterone.
# The enzyme activity was measured in the presence of at least 4 concentrations of each compound.
# [7] = test system: testosterone; assay: In vivo endocrine test in mice: plasma testosterone (RIA); details: 2 weeks
# Experimental: Male HWT mice, 12 weeks old, were treated daily for 2 weeks, with 5 animals per treatment group. […] The test compounds were made up in 5% benzyl alcohol, 95% safflower oil, and were given i.p. In addition to an untreated control group of animals, there was also a solvent control group which received the same volume of liquid as the test group (5 ml/kg) but no test compound. All animals were sacrificed 24 hours after the last injection. Blood was collected by cardiac puncture into heparinized tubes, and the plasma used for RIA (radio immunoassay) of testosterone and luteinising hormone.
# [8] = substrate: C[C@]12CCC(=O)C=C1CC[C@@H]1[C@@H]2CC[C@]2(C)C(=O)CC[C@@H]12; assay: cells, lysate or membranes named; details: other: human placental microsomes used
molecule,measurement,setting,value
"C[C@]12CC[C@H](O)CC1=CC[C@@H]1[C@@H]2CC[C@]2(C)C(c3cccnc3)=CC[C@@H]12 [Ex. 2, 17-(3-Pyridyl)androsta-5,16-dien-3β-ol]",IC50,[1],> 20000 nM
"CC(=O)O[C@H]1CC[C@@]2(C)C(=CC[C@@H]3[C@@H]2CC[C@]2(C)C(c4cccnc4)=CC[C@@H]32)C1 [Ex. 1, 3β-Acetoxy-17-(3-pyridyl)androsta-5,16-diene]",LH (Mean ± standard error),[2]; 0.02 mmol/kg/day i.p.,3.4 ± 0.5 ng/mL
same,"Mean weight ± standard error, Adrenals",[3]; 0.02 mmol/kg/day i.p.,4.3 ± 0.2 mg
same,"Mean weight ± standard error, Kidneys",[3]; 0.02 mmol/kg/day i.p.,604 ± 24 mg
same,"Mean weight ± standard error, Adrenals",[3]; 0.1 mmol/kg/day i.p.,4.0 ± 0.2 mg
same,"Mean weight ± standard error, Kidneys",[3]; 0.1 mmol/kg/day i.p.,500 ± 8 mg
same,"Mean weight ± standard error, Adrenals",[3]; 0.5 mmol/kg/day i.p.,4.7 ± 0.2 mg
same,"Mean weight ± standard error, Kidneys",[3]; 0.5 mmol/kg/day i.p.,449 ± 12 mg
same,post mortem examination: appearance of organs,[4],all organs looked normal
same,post mortem examination: deposits,[4],oil/white deposits i.p.
CC12CCC(Oc3c(F)c(F)c(C(F)(F)F)c(F)c3F)CC1=CCC1C2CCC2(C)C(c3cccnc3)=CCC12 (stereo not shown),inhibition of hydroxylase (in words),[5],very poor inhibitor
same,inhibition of lyase (in words),[6],very poor inhibitor
"C[C@]12CCC(=O)C[C@@H]1CC[C@@H]1[C@@H]2CC[C@]2(C)C(c3cccnc3)=CC[C@@H]12 [Ex. 9, 17-(3-Pyridyl)-5α-androst-16-en-3-one]",IC50,"[5]; approx. 4 nM enzyme, A and B ring variations, read-out: IC50 Hydroxylase (Table 2(a))",4.7 nM
C[C@]12CC[C@H](O)CC1=CC[C@@H]1[C@@H]2CC[C@]2(C)C(c3ccccn3)=CC[C@@H]12 [Example 2-Pyridyl],"concentration required to achieve 50% inhibition of hydroxylase, versus the 3-pyridyl (in words)",[5],far greater
same,"concentration required to achieve 50% inhibition of lyase, versus the 3-pyridyl (in words)",[6],far greater
"C[C@]12CCC(=O)C=C1CC[C@@H]1[C@@H]2CC[C@]2(C)C(c3cccnc3)=CC[C@@H]12 [Ex. 4, 17-(3-Pyridyl)androsta-4,16-dien-3-one]",Testosterone (Mean ± standard error),[7]; 0.02 mmol/kg/day i.p.,4.5 ± 0.3 nM
same,Testosterone (Mean ± standard error),[7]; 0.1 mmol/kg/day i.p.,3.5 ± 1.0 nM
same,Testosterone (Mean ± standard error),[7]; 0.5 mmol/kg/day i.p.,0.4 ± 0.1 nM
same,"Mean weight ± standard error, Adrenals",[3]; 0.02 mmol/kg/day i.p.,4.7 ± 0.2 mg
same,"Mean weight ± standard error, Seminal Vesicles",[3]; 0.02 mmol/kg/day i.p.,108 ± 4 mg
same,"Mean weight ± standard error, Adrenals",[3]; 0.1 mmol/kg/day i.p.,4.6 ± 0.4 mg
same,"Mean weight ± standard error, Seminal Vesicles",[3]; 0.1 mmol/kg/day i.p.,61 ± 9 mg
same,"Mean weight ± standard error, Adrenals",[3]; 0.5 mmol/kg/day i.p.,4.9 ± 0.1 mg
same,"Mean weight ± standard error, Seminal Vesicles",[3]; 0.5 mmol/kg/day i.p.,25 ± 1 mg
same,post mortem examination: appearance of organs,[4],all organs looked normal
same,post mortem examination: deposits,[4],white deposits throughout the abdomen
C[C@]12CC[C@H](O)CC1=CC[C@@H]1[C@@H]2CC[C@]2(C)C(Cc3ccccn3)=CC[C@@H]12 [Example 2-picolyl],"concentration required to achieve 50% inhibition of hydroxylase, versus the 3-pyridyl (in words)",[5],far greater
same,"concentration required to achieve 50% inhibition of lyase, versus the 3-pyridyl (in words)",[6],far greater
C[C@]12CC[C@H](O)CC1=CC[C@@H]1[C@@H]2CC[C@]2(C)C(c3ccncc3)=CC[C@@H]12 [Example 4-pyridyl],"concentration required to achieve 50% inhibition of hydroxylase, versus the 3-pyridyl (in words)",[5],far greater
same,"concentration required to achieve 50% inhibition of lyase, versus the 3-pyridyl (in words)",[6],far greater
CC(=O)N1CCN(c2ccc(OCC3COC(Cn4ccnc4)(c4ccc(Cl)cc4Cl)O3)cc2)CC1 (stereo not shown) [Ketoconazole],LH (Mean ± standard error),[2]; 0.1 mmol/kg/day i.p.,0.39 ± 0.14 ng/mL
same,LH (Mean ± standard error),[2]; 0.225 mmol/kg/day i.p.,0.75 ± 0.02 ng/mL
same,LH (Mean ± standard error),[2]; 0.5 mmol/kg/day i.p.,0.76 ± 0.03 ng/mL
same,"Mean weight ± standard error, Adrenals",[3]; 0.01 mmol/kg/day i.p.,4.8 ± 0.2 mg
same,"Mean weight ± standard error, Kidneys",[3]; 0.01 mmol/kg/day i.p.,637 ± 22 mg
same,"Mean weight ± standard error, Prostate",[3]; 0.01 mmol/kg/day i.p.,9.1 ± 0.8 mg
same,"Mean weight ± standard error, Seminal Vesicles",[3]; 0.01 mmol/kg/day i.p.,235 ± 18 mg
same,"Mean weight ± standard error, Testes",[3]; 0.01 mmol/kg/day i.p.,141 ± 5 mg
same,"Mean weight ± standard error, Adrenals",[3]; 0.225 mmol/kg/day i.p.,6.1 ± 0.3 mg
same,"Mean weight ± standard error, Kidneys",[3]; 0.225 mmol/kg/day i.p.,574 ± 23 mg
same,"Mean weight ± standard error, Prostate",[3]; 0.225 mmol/kg/day i.p.,10.8 mg
same,"Mean weight ± standard error, Seminal Vesicles",[3]; 0.225 mmol/kg/day i.p.,171 ± 5 mg
same,"Mean weight ± standard error, Testes",[3]; 0.225 mmol/kg/day i.p.,127 ± 7 mg
same,"Mean weight ± standard error, Adrenals",[3]; 0.5 mmol/kg/day i.p.,6.9 ± 0.3 mg
same,"Mean weight ± standard error, Kidneys",[3]; 0.5 mmol/kg/day i.p.,710 ± 30 mg
same,"Mean weight ± standard error, Prostate",[3]; 0.5 mmol/kg/day i.p.,9.3 ± 0.9 mg
same,"Mean weight ± standard error, Seminal Vesicles",[3]; 0.5 mmol/kg/day i.p.,179 ± 20 mg
same,"Mean weight ± standard error, Testes",[3]; 0.5 mmol/kg/day i.p.,133 ± 6 mg
same,effect on adrenal weight,[3]; two highest doses,increase in adrenal weight
same,appearance of livers,[4],brown
same,"gut and peritoneal wall, appearance",[4],seemed to be stuck to the seminal vesicles
B1,Km,[8],0.039 µM
